Measured values: patent publication US20260078135A1, “POLYCYCLIC QUINAZOLINES FOR INHIBITION OF ERBB2” (Enliven Inc., priority 2022, published 2026)

Key:
[1] = molecular target: T1, phosphorylated ERBB2 (pERBB2) (Homo sapiens, UniProt P04626); assay: Detection of phosphorylated ERBB2 (pERBB2) by ELISA in BT-474 cells; format: cell-based; conditions: four hour incubation
T1 construct: endogenous in cells; host or cells: BT-474
Method in brief: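 BT-474 cells were treated with compounds (fourfold dilutions, 10 μM to 0.01 nM final) for 4 h at 37 °C, then lysed. pERBB2 in lysates was quantified by ELISA with an HRP anti-phosphotyrosine detection antibody and TMB read at 450 nm; % relative activity was normalized to no-cell and 0.1% DMSO controls.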

[2] = molecular target: T2, phosphorylated EGFR (pEGFR) (Homo sapiens, UniProt P00533); assay: Detection of phosphorylated EGFR (pEGFR) by AlphaLISA in EGF-stimulated A431 cells; format: cell-based; conditions: A431 cells (10% FBS), 4 hours incubation, EGF 30 ng/mL for 10 minutes
T2 construct: performed to measure phosphorylated EGFR levels using A431 cells (10% FBS); endogenous in cells; host or cells: A431
Method in brief: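 pEGFR was quantified by AlphaLISA in lysates of A431 cells (10% FBS) given a 10 min pulse of EGF at 30 ng/mL after 4 h compound exposure at 37 °C. IC50 came from a four-parameter fit of % inhibition between DMSO and staurosporine controls.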

Ba/F3 ERBB2 YVMA = Ba/F3 ERBB2 YVMA (Homo sapiens, UniProt P04626, DUP772-775, cells depend on it); assay: Cell viability assay (CellTiter Glo), Ba/F3 cells engineered to express ERBB2 YVMA; format: cell-based, mouse; conditions: Ba/F3 cells expressing human ERBB2 YVMA mutant, 72 hours, read-out: Ba/F3 ERBB2 YVMA, IC50
Method in brief: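 Ba/F3 cells (IL-3-independent via stable retroviral human ERBB2 YVMA) seeded 3000/well and given compound from about 10 μM to 0.51 nM in three-fold steps, DMSO ≤0.1%, 72 h at 37° C. Viability by CellTiter Glo luminescence, normalized to DMSO and media-only controls. Sigmoidal nonlinear fit.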

Ba/F3 ERBB2 YVMA, sequence (P04626 with tags, fused parts or gaps DUP772-775): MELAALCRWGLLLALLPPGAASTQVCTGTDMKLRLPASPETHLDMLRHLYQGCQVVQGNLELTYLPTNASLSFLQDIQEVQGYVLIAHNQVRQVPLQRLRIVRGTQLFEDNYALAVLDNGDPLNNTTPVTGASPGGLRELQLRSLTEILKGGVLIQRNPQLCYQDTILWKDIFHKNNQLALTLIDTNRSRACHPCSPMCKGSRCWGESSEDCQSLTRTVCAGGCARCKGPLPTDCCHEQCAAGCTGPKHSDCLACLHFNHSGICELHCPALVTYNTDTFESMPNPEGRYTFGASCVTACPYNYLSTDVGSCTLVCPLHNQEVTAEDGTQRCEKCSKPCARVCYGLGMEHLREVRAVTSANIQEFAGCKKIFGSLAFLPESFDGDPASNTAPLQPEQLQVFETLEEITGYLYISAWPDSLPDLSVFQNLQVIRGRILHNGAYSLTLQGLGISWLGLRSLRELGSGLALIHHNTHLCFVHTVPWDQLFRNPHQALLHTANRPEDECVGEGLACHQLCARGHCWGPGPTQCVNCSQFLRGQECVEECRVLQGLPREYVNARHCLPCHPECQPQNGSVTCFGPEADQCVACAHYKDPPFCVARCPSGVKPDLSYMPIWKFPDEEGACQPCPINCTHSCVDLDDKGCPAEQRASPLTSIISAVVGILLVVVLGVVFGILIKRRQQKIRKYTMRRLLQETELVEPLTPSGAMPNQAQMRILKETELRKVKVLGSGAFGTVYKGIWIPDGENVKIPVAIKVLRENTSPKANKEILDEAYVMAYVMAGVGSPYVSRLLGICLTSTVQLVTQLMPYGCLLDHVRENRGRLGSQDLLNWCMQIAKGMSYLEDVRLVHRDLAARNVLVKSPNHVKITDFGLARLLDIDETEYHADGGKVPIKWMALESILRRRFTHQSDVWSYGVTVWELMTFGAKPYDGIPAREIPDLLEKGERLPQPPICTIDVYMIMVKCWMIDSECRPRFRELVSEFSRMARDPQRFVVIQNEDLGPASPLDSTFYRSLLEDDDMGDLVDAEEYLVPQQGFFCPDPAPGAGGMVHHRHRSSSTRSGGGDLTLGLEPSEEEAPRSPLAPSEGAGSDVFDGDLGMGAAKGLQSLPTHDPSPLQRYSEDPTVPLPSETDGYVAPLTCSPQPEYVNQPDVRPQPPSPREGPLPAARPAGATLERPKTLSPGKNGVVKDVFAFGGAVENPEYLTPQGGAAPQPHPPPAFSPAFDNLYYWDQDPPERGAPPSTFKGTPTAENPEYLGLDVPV
T2 sequence (P00533 25-1210): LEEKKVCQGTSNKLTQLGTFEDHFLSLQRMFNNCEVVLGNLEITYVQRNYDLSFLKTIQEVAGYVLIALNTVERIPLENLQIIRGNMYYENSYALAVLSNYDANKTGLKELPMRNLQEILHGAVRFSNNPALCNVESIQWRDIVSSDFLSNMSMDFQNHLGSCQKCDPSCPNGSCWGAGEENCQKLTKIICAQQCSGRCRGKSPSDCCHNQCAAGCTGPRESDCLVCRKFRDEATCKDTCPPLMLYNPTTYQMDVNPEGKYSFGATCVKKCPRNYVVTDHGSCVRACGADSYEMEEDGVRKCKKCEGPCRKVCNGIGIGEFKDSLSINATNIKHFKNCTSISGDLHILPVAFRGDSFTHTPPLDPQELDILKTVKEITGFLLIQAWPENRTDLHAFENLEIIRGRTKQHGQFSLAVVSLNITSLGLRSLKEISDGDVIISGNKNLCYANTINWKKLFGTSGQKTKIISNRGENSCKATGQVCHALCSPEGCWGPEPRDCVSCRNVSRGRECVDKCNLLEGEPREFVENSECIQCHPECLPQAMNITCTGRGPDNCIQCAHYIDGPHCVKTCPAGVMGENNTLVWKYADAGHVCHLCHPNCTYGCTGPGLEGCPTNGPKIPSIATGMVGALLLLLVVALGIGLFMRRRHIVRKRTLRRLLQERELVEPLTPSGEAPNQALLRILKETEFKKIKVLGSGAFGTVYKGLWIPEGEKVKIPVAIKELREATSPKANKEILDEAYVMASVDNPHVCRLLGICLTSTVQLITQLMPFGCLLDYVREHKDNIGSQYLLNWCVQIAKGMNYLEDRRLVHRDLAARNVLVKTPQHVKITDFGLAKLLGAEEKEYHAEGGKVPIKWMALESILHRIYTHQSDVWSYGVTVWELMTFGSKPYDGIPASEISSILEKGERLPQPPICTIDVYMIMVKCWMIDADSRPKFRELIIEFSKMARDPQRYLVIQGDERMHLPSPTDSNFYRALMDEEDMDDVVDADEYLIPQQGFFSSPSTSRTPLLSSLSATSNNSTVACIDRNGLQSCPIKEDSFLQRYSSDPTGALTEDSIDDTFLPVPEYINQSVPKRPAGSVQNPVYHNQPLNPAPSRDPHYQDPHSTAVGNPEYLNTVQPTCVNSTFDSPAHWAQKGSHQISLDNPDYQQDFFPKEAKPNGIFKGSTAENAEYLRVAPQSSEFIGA
T1 sequence (P04626 23-1255): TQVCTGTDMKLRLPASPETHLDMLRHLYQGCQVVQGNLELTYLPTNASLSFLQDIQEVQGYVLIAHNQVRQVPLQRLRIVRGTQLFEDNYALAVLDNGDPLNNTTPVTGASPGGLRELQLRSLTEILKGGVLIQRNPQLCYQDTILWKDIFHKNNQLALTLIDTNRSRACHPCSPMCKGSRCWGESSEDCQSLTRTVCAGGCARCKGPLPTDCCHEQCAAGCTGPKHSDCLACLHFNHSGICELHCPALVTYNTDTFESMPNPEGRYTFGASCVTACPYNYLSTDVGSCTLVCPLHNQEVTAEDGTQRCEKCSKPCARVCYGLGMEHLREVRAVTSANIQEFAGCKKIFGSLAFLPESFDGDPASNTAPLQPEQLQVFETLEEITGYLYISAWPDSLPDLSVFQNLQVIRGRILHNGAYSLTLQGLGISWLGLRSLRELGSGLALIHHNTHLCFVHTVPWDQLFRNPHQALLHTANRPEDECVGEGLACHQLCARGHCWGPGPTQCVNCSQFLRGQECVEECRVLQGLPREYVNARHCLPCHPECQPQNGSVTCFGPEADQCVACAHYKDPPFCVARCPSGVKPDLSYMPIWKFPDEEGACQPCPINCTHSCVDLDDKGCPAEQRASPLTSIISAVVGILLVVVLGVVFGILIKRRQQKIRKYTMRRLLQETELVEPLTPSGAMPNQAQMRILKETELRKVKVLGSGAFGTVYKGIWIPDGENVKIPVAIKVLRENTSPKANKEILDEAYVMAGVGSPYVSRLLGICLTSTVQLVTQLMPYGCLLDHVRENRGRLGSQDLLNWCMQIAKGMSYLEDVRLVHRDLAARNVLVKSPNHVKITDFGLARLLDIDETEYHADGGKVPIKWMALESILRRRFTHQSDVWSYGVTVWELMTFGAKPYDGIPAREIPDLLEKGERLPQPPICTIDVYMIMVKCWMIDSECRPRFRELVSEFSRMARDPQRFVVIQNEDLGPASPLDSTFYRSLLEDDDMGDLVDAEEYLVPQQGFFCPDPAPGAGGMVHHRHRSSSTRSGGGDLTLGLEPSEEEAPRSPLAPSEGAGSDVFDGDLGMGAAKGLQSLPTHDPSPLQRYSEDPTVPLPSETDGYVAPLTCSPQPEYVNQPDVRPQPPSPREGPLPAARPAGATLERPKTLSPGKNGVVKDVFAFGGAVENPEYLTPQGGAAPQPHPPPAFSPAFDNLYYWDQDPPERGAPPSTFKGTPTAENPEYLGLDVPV

| SMILES | IC50 [1] | IC50 [2] | GI50 (Ba/F3 ERBB2 YVMA) |
| --- | --- | --- | --- |
| Cc1cc(Nc2ncnc3ccc4c(c23)O[C@@H]2CCN(C)C[C@H]2N4C)ccc1Oc1ccc2c(c1)ncn2C (relative stereo) [Compound 124, trans-7,9-dimethyl-N-(3-methyl-4-((1-methyl-1H-benzo[d]imidazol-5-yl)oxy)phenyl)-7a,8,9,10,11,11a-hexahydro-7H-pyrido[3′,4′:5,6][1,4]oxazino[2,3-f]quinazolin-1-amine] | 63 nM | > 10000 nM | 93.7 nM |
| CC#CC(=O)N1CCN2c3cc4c(Nc5ccc(Oc6ccc7c(c6)ncn7C)c(C)c5)ncnc4cc3OC[C@@H]2C1 [Compound 14, (S)-1-(11-((3-methyl-4-((1-methyl-1H-benzo[d]imidazol-5-yl)oxy)phenyl)amino)-1,2,4a,5-tetrahydropyrazino[1′,2′:4,5][1,4]oxazino[3,2-g]quinazolin-3(4H)-yl)but-2-yn-1-one] | 82.8 nM | 545 nM | 14.4 nM |
| Cc1cc(Nc2ncnc3cnc4c(c23)OC[C@H]2COCCN42)ccc1Oc1ccc2c(c1)ncn2C [Compound 122, (R)—N-(3-methyl-4-((1-methyl-1H-benzo[d]imidazol-5-yl)oxy)phenyl)-6a,7,9,10-tetrahydro-6H-[1,4]oxazino[4,3-d]pyrimido[5′,4′:4,5]pyrido[3,2-b][1,4]oxazin-4-amine] | 26.4 nM | > 10000 nM | 30.9 nM |
| Cc1cc(Nc2ncnc3ccc4c(c23)OC[C@@H]2CN4CCN2)ccc1Oc1ccn2ncnc2c1 [Compound 49, (3S)—N-(4-([1,2,4]triazolo[1,5-a]pyridin-7-yloxy)-3-methylphenyl)-3,4,5,6-tetrahydro-2H-3,7-methano[1,4,7]oxadiazonino[2,3-f]quinazolin-13-amine] | 466 nM | > 10000 nM | > 500 nM |
| Cc1cc(Nc2ncnc3ccc4c(c23)O[C@H]2CCN(C)C[C@H]2N4)ccc1Oc1ccc2c(c1)ncn2C [Compound 125, (7aR,11aS)-9-methyl-N-(3-methyl-4-((1-methyl-1H-benzo[d]imidazol-5-yl)oxy)phenyl)-7a,8,9,10,11,11a-hexahydro-7H-pyrido[3′,4′:5,6][1,4]oxazino[2,3-f]quinazolin-1-amine] | 58 nM | > 10000 nM | 164 nM |
| Cc1cc(Nc2ncnc3ccc4c(c23)OC[C@H]2CN4CCN2C)ccc1Oc1ccn2ncnc2c1 [Compound 52, (3R)—N-(4-([1,2,4]triazolo[1,5-a]pyridin-7-yloxy)-3-methylphenyl)-4-methyl-3,4,5,6-tetrahydro-2H-3,7-methano[1,4,7]oxadiazonino[2,3-f]quinazolin-13-amine] | 219 nM | > 10000 nM | > 500 nM |
| C=CC(=O)N1CCN2c3ccc4ncnc(Nc5ccc(Oc6ccc7c(c6)ncn7C)c(C)c5)c4c3OC[C@@H]2C1 [Compound 21, (S)-1-(4-((3-methyl-4-((1-methyl-1H-benzo[d]imidazol-5-yl)oxy)phenyl)amino)-6a,7,9,10-tetrahydropyrazino[1′,2′:4,5][1,4]oxazino[2,3-f]quinazolin-8(6H)-yl)prop-2-en-1-one] | 22.7 nM | 575 nM | 16.2 nM |
| Cc1cc(Nc2ncnc3cc4c(nc23)N2CCNC[C@@H]2CO4)ccc1Oc1ccn2ncnc2c1 [Compound 35, (R)—N-(4-([1,2,4]triazolo[1,5-a]pyridin-7-yloxy)-3-methylphenyl)-1,2,3,4,4a,5-hexahydropyrazino[1,2-d]pyrimido[4′,5′:5,6]pyrido[3,2-b][1,4]oxazin-11-amine] | 127 nM | > 10000 nM | > 500 nM |
